Data published in patent US12077555B2, “STAT degraders and uses thereof” (Kymera Therapeutics, Inc., priority 2019, dated 2024).

Experiments:
Assay type in all cases: cell-based
SU-DHL-1 cells = test: Wash-out study in SU-DHL-1 cells; conditions: 1 uM compound for 24 and 48 hr, then wash-out; FIGS. 10 and 18
Description: I-103 and I-174 were tested in the wash-out protocol.
• Seed cell suspension in T75 flasks and treat with 0.1% DMSO and 1 uM compound for 24 and 48 hr. Day 0 • Collect cell suspension from the flasks in conical tubes after 24 and 48 hr, spin down at 1,000 rpm for 5 min. • Remove supernatant. Wash with PBS, spin down at 1,000 rpm for 5 min, repeat PBS wash one more time. • Seed the cells at 2,000 cells per well in 384-well plates for growth inhibition measurement via CellTiterGlo (CTG) and 10,000 cells per well in 96-well plates for STAT3 levels via MSD. • Measure T0 for CTG and collect pellets to measure levels of STAT3 by MSD Day 1-4 • Measure CTG every day for 4 days post wash-out. • Collect pellets and measure levels of STAT3 by MSD every day for 4 days post wash-out. Growth inhibition was normalized to T0 and graphed as % control.

STAT3 [1] = biological target: T1, STAT3 (Homo sapiens, UniProt P40763); test: STAT3 degradation (DC50) in multiple ALK+ALCL cell lines; conditions: dose response curves, FIG. 14
T1 sequence (P40763 whole entry): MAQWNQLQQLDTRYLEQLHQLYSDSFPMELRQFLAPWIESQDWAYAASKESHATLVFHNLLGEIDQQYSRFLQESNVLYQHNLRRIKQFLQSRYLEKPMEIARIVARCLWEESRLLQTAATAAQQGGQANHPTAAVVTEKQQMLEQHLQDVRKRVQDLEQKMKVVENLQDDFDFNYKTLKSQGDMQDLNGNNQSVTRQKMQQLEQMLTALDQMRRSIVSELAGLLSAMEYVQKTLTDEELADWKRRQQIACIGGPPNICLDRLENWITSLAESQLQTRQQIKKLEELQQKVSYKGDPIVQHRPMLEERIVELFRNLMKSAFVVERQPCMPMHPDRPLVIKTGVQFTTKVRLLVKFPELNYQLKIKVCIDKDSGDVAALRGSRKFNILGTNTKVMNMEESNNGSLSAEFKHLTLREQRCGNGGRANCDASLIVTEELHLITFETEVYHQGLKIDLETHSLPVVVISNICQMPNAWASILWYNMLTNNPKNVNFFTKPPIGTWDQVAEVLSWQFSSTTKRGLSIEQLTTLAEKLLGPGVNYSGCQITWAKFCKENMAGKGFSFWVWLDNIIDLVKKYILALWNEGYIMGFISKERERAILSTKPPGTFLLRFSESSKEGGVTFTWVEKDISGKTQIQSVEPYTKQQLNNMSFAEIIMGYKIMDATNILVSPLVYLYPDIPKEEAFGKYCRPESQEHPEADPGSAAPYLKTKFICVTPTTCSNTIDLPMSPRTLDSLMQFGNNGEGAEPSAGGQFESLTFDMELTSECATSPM

SU-DHL-1 = test: STAT3 decrease needed for SU-DHL-1 apoptosis and cell growth inhibition (FIG. 8, 17)
Source text: FIG. 8 depicts that a decrease of STAT3 by 90% using I-103 is necessary to induce SU-DHL-1 apoptosis and inhibit cell growth.
FIG. 17 depicts that a decrease of STAT3 by 90% using I-174 and I-94 is necessary to induce SU-DHL-1 apoptosis and inhibit cell growth.

KI-JK cells = test: CellTiter-Glo cell viability, KI-JK
STAT3 [2] = biological target: T1, STAT3; test: STAT3 HiBiT degradation assay in transfected A549 cells; set-up: expressed in transfected cells; host or cells: A549; conditions: A549, 24 h; read-out: STAT3 HiBiT A549 degradation 24 h: Average external-Abs DC50
In short: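 Degradation read as HiBiT-tagged STAT3 luminescence (Nano-Glo lytic reagent, 10 min, room temperature) following 24 h compound treatment of transfected A549 cells at 3-fold, 10 points. Percent remaining signal computed against controls and fitted with a four-parameter logistic; DC50 reported as letter bins (A <0.01 to D >1.0 µM).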

STAT3 [3] = biological target: T1, STAT3; test: Deep tandem mass tag proteomics; conditions: Molm-16 and SU-DHL-1 cells, 8 hours, FIGS. 4 and 13
Description: Total protein was isolated from cells (e.g., Molm-16 and SU-DHL-1) and treated with degrader for 8 hours. Vehicle (DMSO)-treated cells were used as controls. Protein lysates, 2 biological replicates per condition, were prepared at 4 C in 8M urea, 75 mM NaCl, 1 mM EDTA in 50 mM Tris HCl (pH 8), 10 mM NaF, phosphatase inhibitor cocktail 2 (1:100; Sigma, P5726) and cocktail 3 (1:100; Sigma, P0044), 2 μg/mL aprotinin (Sigma, A6103), 10 μg/mL Leupeptin (Roche, 11017101001), and 1 mM PMSF (Sigma, 78830). Lysates were spun at 20,000 rcf for 10 min and supernatant (containing extracted proteins) was transferred to a clean microcentrifuge tube. Protein concentrations were determined using the Pierce BCA assay. Protein lysates were reduced with 5 mM dithiothreitol (Thermo Scientific, 20291) for 45 min at room temperature and alkylated with 10 mM iodoacetamide (Sigma, A3221) for an additional 45 min. […] Online fractionation was performed using a nanoflow Proxeon EASY-nLC 1200 UHPLC system (Thermo Fisher Scientific) and separated peptides were analyzed on a benchtop Orbitrap Q Exactive plus mass spectrometer (Thermo Fisher Scientific). All data were analyzed using Spectrum Mill software package (Agilent Technologies). […] In total, 10,992 proteins were quantified. […]

`Cn1c(=O)n(C2CCC(=O)NC2=O)c2ccc(C[C@H]3CC[C@@H](CC(=O)N4CC[C@H]5CC[C@@H](C(=O)N[C@@H](CCC(N)=O)C(=O)NC(c6ccccc6)c6ccccc6)N5C(=O)[C@@H](NC(=O)c5cc6cc(C(=O)P(=O)(O)O)ccc6[nH]5)C4)CC3)cc21` (stereo partly drawn) [Compound I-174, 2-[[(5S,8S,10aR)-8-[[(1S)-3-carbamoyl-1-(diphenylmethylcarbamoyl)propyl]carbamoyl]-6-oxo-3-[2-[(1s,4s)-4-[[1-(2,6-dioxopiperidin-3-yl)-3-methyl-2-oxo-1,3-benzodiazol-5-yl]methyl]cyclohexyl]acetyl]-octahydropyrrolo[1,2-a][1,5]diazocin-5-yl]carbamoyl]-1H-indole-5-carbonylphosphonic acid] was tested, and the “viability of SU-DHL-1 cells after wash-out” value (SU-DHL-1 cells) was “profound effects on the viability of SU-DHL-1 cells”, the “degradation in multiple ALK+ALCL cell lines” value (STAT3 [1]) was “mediated degradation” and the “decrease of STAT3 necessary to induce SU-DHL-1 apoptosis and inhibit cell growth” value (SU-DHL-1) was 90%. For the same compound, the IC50 (KI-JK cells; 96 h, ALCL (ALK+), Day 4, read-out: CTG, IC50 μM, Day 4) was 0.047 µM, the “CTG (% Max inh), Day 4” value (KI-JK cells; ALCL (ALK+), Day 4) was “(97) %” and the cell proliferation (KI-JK cells; FIG. 16) was “inhibit”. For the same compound, the DC50 (STAT3 [2]) was 10 to 100 nM and the “selectivity of degradation for STAT3 vs >10,000 other detected proteins” value (STAT3 [3]) was “highly selective for STAT3”.
